pKi: −log10 of the molar value.

Assay [1] has as its target 5-hydroxytryptamine receptor 2A (Rattus norvegicus, UniProt P14842).
Assay [2] addresses 5-hydroxytryptamine receptor 1B (Rattus norvegicus, UniProt P28564).
Assay [3] concerns the target T1, 5-hydroxytryptamine receptor 3A (Rattus norvegicus, UniProt P35563).
T1 sequence (P35563 whole entry): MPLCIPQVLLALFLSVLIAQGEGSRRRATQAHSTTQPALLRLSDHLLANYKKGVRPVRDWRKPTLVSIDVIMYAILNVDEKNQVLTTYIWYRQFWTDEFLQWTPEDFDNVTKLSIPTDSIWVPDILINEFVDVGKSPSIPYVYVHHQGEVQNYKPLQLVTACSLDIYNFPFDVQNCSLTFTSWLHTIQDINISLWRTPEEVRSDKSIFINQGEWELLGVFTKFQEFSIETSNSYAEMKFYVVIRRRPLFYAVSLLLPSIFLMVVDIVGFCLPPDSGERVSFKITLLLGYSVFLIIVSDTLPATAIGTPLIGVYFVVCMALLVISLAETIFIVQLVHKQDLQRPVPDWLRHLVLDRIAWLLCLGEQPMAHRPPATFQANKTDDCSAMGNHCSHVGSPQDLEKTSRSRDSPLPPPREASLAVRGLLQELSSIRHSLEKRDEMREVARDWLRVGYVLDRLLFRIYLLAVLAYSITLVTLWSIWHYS

The target in assay [4] is T2, 5-hydroxytryptamine receptor 2C (Sus scrofa, UniProt G7ZKZ7).
T2 sequence (G7ZKZ7 whole entry): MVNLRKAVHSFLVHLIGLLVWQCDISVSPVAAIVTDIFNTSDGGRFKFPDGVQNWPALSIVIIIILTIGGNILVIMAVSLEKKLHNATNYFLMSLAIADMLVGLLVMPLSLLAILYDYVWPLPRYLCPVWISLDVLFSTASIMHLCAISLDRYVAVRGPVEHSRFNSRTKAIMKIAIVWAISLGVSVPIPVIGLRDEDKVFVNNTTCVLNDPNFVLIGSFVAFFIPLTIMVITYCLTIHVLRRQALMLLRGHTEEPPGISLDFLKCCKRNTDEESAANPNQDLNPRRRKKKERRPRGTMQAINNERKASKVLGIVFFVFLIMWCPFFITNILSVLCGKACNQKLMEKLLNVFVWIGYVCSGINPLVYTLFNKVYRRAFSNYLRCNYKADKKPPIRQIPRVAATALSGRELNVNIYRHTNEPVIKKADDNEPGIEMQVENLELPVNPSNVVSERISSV

Assay [5] has as its target T3, 5-hydroxytryptamine receptor 1A (Rattus norvegicus, UniProt P19327).
T3 sequence (P19327 whole entry): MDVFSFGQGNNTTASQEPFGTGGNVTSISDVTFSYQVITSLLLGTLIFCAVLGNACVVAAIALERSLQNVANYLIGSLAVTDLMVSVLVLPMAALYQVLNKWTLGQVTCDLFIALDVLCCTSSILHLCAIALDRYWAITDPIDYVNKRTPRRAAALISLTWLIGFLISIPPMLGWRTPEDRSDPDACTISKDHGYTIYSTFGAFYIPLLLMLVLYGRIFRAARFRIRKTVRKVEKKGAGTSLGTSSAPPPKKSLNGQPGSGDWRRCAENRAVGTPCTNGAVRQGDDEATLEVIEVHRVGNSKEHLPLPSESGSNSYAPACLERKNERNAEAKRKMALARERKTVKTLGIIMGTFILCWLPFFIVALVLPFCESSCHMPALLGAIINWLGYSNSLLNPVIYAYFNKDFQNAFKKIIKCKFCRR

5-hydroxytryptamine receptor 2A, sequence (P14842 whole entry): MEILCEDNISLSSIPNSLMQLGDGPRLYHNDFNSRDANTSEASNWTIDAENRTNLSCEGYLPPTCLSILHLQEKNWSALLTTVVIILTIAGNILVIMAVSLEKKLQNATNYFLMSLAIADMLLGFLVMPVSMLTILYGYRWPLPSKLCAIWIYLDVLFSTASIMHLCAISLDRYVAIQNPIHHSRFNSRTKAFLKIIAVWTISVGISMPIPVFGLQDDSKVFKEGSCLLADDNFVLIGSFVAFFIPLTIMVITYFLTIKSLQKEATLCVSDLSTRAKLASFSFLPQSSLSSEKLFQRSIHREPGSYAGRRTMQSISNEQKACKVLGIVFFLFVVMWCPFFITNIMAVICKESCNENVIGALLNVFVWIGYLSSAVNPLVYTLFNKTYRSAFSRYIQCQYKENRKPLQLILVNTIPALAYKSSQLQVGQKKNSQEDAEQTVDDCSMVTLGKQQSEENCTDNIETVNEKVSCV
5-hydroxytryptamine receptor 1B, sequence (P28564 whole entry): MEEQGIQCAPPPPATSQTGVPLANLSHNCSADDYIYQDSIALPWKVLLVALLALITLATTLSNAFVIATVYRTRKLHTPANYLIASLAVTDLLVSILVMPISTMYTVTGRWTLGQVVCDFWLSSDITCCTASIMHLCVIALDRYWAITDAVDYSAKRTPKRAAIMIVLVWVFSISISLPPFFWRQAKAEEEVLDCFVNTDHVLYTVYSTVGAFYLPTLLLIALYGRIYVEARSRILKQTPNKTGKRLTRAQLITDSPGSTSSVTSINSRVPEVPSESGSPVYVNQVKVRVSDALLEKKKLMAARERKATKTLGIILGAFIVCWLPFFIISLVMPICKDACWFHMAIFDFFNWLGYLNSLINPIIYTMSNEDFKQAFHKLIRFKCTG

For `c1ccc2c(c1)CC(N1CCN(c3cccc4c3OCCO4)CC1)C2` [NSC_132787], the negative-log Ki (pKi) in assay [1] was 6.67; in assay [2], 5.76; in assay [3] it was 6.00; in assay [4], 6.27.
The compound `COC(=O)c1cc2c(N3CCN(CCCCN4C(=O)c5ccccc5S4(=O)=O)CC3)cccc2[nH]1` [CAS_141533-35-9] gave a negative logarithm of the Ki (pKi) in assay [5] of 8.80.
For the compound `COc1ccccc1N1CCN(CCCCN2C(=O)c3ccccc3C2=O)CC1` [2-{4-[4-(2-Methoxy-phenyl)-piperazin-1-yl]-butyl}-isoindole-1,3-dione], the pKi was 6.19 in assay [1], 5.97 in assay [2] and 6.11 in assay [4].
As for `COc1ccccc1N1CCN(C[C@@H](C(=O)NC(C)(C)C)c2ccccc2)CC1` [WAY 100135], the negative-log Ki (pKi) is 5.46 in assay [1]; under 5.00 in assay [2]; 6.00 in assay [3]; 5.46 in assay [4]; 7.49 in assay [5].
For `COc1ccccc1N1CCN(CCN2C(=O)CC3(CCCC3)CC2=O)CC1`, the negative logarithm of the Ki (pKi) is 5.76 in assay [1], under 5.00 in assay [2], 6.00 in assay [3] and 6.63 in assay [4].
Take `O=C(CCCN1CCC2(CC1)C(=O)NCN2c1ccccc1)c1ccc(F)cc1` [8-[4-(4-fluorophenyl)-4-oxidanylidene-butyl]-1-phenyl-1,3,8-triazaspiro[4.5]decan-4-one]: the values for the pKi in assay [2], in assay [4] and in assay [5] were under 5.00, 6.01 and 6.94, respectively.
Take `C=CCc1ccccc1OC[C@@H](O)CNC(C)C` [ALPRENOLOL,(-)]: the negative-log Ki (pKi) in assay [1] is 5.30; in assay [2], 7.00; in assay [4], 5.35.
Turning to `O=C1CC2(CCCC2)CC(=O)N1CCNCC1COc2ccccc2O1` (configuration not stated) [CAS_124756-23-6], the negative-log Ki (pKi) in assay [1] is 5.79; in assay [2], 5.34; in assay [4], 6.37; in assay [5] it was 8.90.
For the compound `c1ccc2c(c1)CCC2CCN1CCN(c2cccc3c2OCCO3)CC1` (configuration not stated) [CAS_182596], the negative-log Ki (pKi) in assay [1] was 6.72; in assay [2], 6.38; in assay [3] it was 7.27; in assay [4], 6.94; in assay [5], 8.82.
As to `c1cc2c(c(N3CCNCC3)c1)OCCO2` [1-(2,3-Dihydro-benzo[1,4]dioxin-5-yl)-piperazine], the negative logarithm of the Ki (pKi) in assay [1] is 5.86; in assay [2], 7.27; in assay [3], 6.00; in assay [4], 6.77; in assay [5] it was 8.03.
In the case of `c1ccc2c(c1)CC2CCN1CCN(c2cccc3c2OCCO3)CC1` (configuration not stated) [NSC_182595], the negative-log Ki (pKi) is 6.85 in assay [1]; 6.22 in assay [2]; 6.43 in assay [3]; 6.82 in assay [4]; 9.21 in assay [5].
Take `CC(C)(C)NCC(O)COc1cccc2c1SCCC2` (single isomer, unassigned; (-)) [TERTATOLOL(-)]: the negative-log Ki (pKi) in assay [1] was 5.84; in assay [2], 6.74; in assay [3] it was 6.00; in assay [4], 6.44; in assay [5], 8.08.

In general, pKi refers to the negative decadic logarithm of the Ki, by convention in mol/L. A high value points to a small Ki.

The values above are taken from BindingDB's records for PubMed 8301575 (Institut De Recherches Servier, 1994).
